The source of these data is patent US20060134001A1, “Conjugated infrared fluorescent substances for detection of cell death” (priority 2002, published 2006).

By Kd is commonly meant the equilibrium constant for the complex coming apart.

Data set [1] has as its system mitochondria and/or endoplasmic reticulum. Nature of the data set: Subcellular partitioning of dye. The format is cell-based. As to conditions: concentration-dependent.
A short description of data set [2]: In vivo early half-life of dye.
For data set [3], the system named is vasculature of the heart. The experiment in a line: Near-infrared fluorescence imaging of heart vasculature with vascular contrast agent after LAD artery ischemia. The format is in vivo. To be noted: rat, 12.5 nmol injected, 24 hours after LAD artery ischemia; compared with 2,3,5-triphenyltetrazolium chloride staining.
Description: The otherwise invisible near-infrared fluorescence from indocyanine green has been pseudo-colored white prior to superimposition on the color video (anatomic) image. […] In pseudo-colored magenta are the red fluorescent microbeads injected during initial ischemia. […] The area of the heart internal to this “ring” of perfusion is termed the “area at risk”, i.e., the area of myocardium that had no blood flow during LAD ligation. […] Finally, the near-infrared fluorescence signal from injection of 25 μg of human annexin V covalently conjugated with IRDye78 (a near-infrared fluorophore) is shown pseudo-colored in green.
A short description of data set [4]: Solubility of dye in blood. To be noted: small molecule form.
For data set [5] the following is noted: human annexin V; read-out: affinity (kd) for phosphatidylserine (PS); cited from earlier work.
The conditions of data set [6]: cited from earlier work.
Data set [7] deals with apoptotic and/or necrotic cells. Nature of the data set: Near-infrared fluorescence imaging of labeled annexin V in rat heart after LAD artery ischemia/reperfusion. It is filed as in vivo. As to conditions: 25 μg injected, imaged 24 hours after 20 minutes LAD ligation and reperfusion. The protocol:
A branch of the left anterior descending (LAD) artery of the rat heart was ligated with a silk suture. During ligation, the aorta was cross-clamped and 10 μm red fluorescent microbeads were injected into the ventricle. […] After 20 minutes of ligation, the suture was removed, and the heart was permitted to re-perfuse.
The otherwise invisible near-infrared fluorescence from indocyanine green has been pseudo-colored white prior to superimposition on the color video (anatomic) image. […] In pseudo-colored magenta are the red fluorescent microbeads injected during initial ischemia. This area was well perfused during ischemia. The area of the heart internal to this “ring” of perfusion is termed the “area at risk”, i.e., the area of myocardium that had no blood flow during LAD ligation. The area of avascularity/infarct identified with indocyanine green is contained within the area at risk. Finally, the near-infrared fluorescence signal from injection of 25 μg of human annexin V covalently conjugated with IRDye78 (a near-infrared fluorophore) is shown pseudo-colored in green. The green areas, thus, represent apoptotic and/or necrotic cells, i.e., those areas within the area at risk that have actually succumbed to the ischemia. […] Presumably, this area was supplied by either diffusion or smaller collateral vessels fed by the well-perfused area.

`CN1C(=CC=C2CCCC(C=CC3=[N+](C)c4ccccc4C3(C)C)=C2Cl)C(C)(C)c2ccccc21.[O-][Cl+3]([O-])([O-])[O-]` [IR-786]: the partitioning into organelles entry in data set [1] was “partitions efficiently into mitochondria and/or endoplasmic reticulum”.

For `CC1(C)C(/C=C/C=C/C=C/C=C2\N(CCCCS(=O)(=O)O)c3ccc4ccccc4c3C2(C)C)=[N+](CCCCS(=O)(=O)[O-])c2ccc3ccccc3c21` [Indocyanine green, indocyanine green], the “in vivo early half-life” value in data set [2] is given as “shorter half-life”. Further, the “vascular staining of ischemic heart” value in data set [3] is listed as “reveals an area of avascularity that corresponds to infarcted tissue”. Further, the solubility in blood result in data set [4] was “somewhat less soluble in blood”.

Regarding “Human annexin V: human annexin V, molecular weight 36 kd, binds phosphatidylserine; targeting moiety”, the dissociation constant Kd in data set [5] is 7 nM. Further, in data set [6] (in vivo), the “dose at which pharmacological effects (anti-coagulant effects) begin” value is reported as “greater than 300 μg protein/kg”. In addition, the “pharmacologic or toxic side effects at tracer doses” value in data set [6] (tracer doses, e.g. 10 μg protein/kg to 50 μg protein/kg, animal or human subjects) is “no reported pharmacologic or toxic side effects”.

For “human annexin V covalently conjugated with IRDye78: annexin V reacted under aqueous conditions with the N-hydroxysuccinimide ester of IRDye78, a near-infrared fluorophore”, the “near-infrared fluorescence signal localisation in ischemic heart” value in data set [7] is reported as “several areas of infarcted myocardium within the area at risk”.
